Consider ten compounds from patent US20240174637A1, “DEGRADERS OF GRK2 AND USES THEREOF” (Sonata Therapeutics, Inc., priority 2021, published 2024).

Where a name gives a salt, the structure may show the parent alone.

Assay [1] has as its target T1, GRK2 (Homo sapiens, UniProt P25098).
T1 sequence (P25098 1-689): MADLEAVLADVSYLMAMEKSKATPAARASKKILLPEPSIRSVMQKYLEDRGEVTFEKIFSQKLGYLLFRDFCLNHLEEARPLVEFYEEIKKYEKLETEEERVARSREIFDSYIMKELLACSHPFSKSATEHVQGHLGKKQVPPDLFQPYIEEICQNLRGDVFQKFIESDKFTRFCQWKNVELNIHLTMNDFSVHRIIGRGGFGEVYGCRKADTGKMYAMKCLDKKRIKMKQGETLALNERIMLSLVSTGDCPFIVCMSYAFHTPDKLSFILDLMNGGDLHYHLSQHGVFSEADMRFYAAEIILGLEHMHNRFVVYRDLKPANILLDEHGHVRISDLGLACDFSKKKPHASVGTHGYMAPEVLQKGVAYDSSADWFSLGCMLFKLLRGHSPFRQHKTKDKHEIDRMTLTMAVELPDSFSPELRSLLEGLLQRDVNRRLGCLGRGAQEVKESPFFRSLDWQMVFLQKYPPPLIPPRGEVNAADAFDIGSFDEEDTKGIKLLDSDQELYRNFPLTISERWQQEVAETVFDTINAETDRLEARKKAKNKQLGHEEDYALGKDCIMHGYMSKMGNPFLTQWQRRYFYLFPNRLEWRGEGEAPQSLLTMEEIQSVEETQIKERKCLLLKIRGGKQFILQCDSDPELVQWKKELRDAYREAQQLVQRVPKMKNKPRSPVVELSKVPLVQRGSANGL
Briefly: GRK2 Degradation Assay and Western Blot in PAXF1657 cells. The class given is cell-based. Set-up: endogenous in cells; host or cells: PAXF1657. The following applies: for inhibition at 0.3 µM: Conc 0.3 uM; for inhibition at 0.3 µM / inhibition at 1 µM / inhibition at 3 µM: read-out: Degradation Assay - 3 point: Degradation (%); for inhibition at 1 µM: Conc 1 uM; for inhibition at 3 µM: Conc 3 uM; for DC50: PAXF1657, 24 h, read-out: Degradation Assay - Full Dose Response: IC50 (uM) [cell line: PAXF1657, time point: 24 h]. An outline of the steps:
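GRK2 degradation judged by immunoblot: NP40 lysates separated by SDS-PAGE and probed for GRK2 and β-actin, with HRP/ECL detection. Lysates came from PAXF1657 cells exposed to 0–10 μM compound for 6–24 h after reaching 70% confluency.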

The test system of assay [2] is PAXF1657 EV. Briefly: 7-day cellular proliferation assay (CellTiter-Glo), PAXF1657 EV. The assay is classed as cell-based. Particulars: proliferation, read-out: GeoMean IC50 (UM) PAXF1657 EV. An outline of the steps: (§1)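 Cells plated at 500 per well and attached overnight. Next, 10-point inhibitor series added (30 μM-0.0002 μM, 0.3% DMSO) and a day-0 viability plate read. Then, after 3 days, medium with fresh compound. Finally, viability after 4 more days via CellTiter-Glo.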
A general note: ATP-based viability assays read luminescence as a measure of living cells.

The target in assay [3] is T1, GRK2. Briefly: GRK2 Inhibition Assay (TR-FRET, Example 1). The class given is biochemical. Particulars: Table 4; Example 1 assay; read-out: Enzymatic GRK2 IC50: Av IC50 GRK2. The method, boiled down: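 TR-FRET phosphorylation readout: Eu anti-TopoIIα antibody with EDTA added after a 90 min RT kinase reaction of 1 nM GRK2, 7 μM ATP and 50 nM ULight-TopoIIα. Compounds were pre-incubated with enzyme 30 min at room temperature beforehand.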
In general terms: TR-FRET usually uses a lanthanide donor and a delayed reading to cut background.

Assay [4] has as its system PAXF1657 KO Clone #4. Briefly: 7-day cellular proliferation assay (CellTiter-Glo), PAXF1657 KO Clone #4. The class given is cell-based. Particulars: proliferation, read-out: GeoMean IC50 (uM) PAXF1657 KO Clone #4. An outline of the steps: as §1

For the compound `C[C@@H](NC(=O)c1cccc(NCc2nnc(-c3ccncn3)n2C)c1)c1cccc(C(=O)N2CC(CN3CCN(c4ccc5c(c4)CN(C4CCC(=O)NC4=O)C5=O)CC3)C2)c1` (stereo partly drawn) [Compound D121, N-((1R)-1-(3-(3-((4-(2-(2,6-dioxopiperidin-3-yl)-1-oxoisoindolin-5-yl)piperazin-1-yl)methyl)azetidine-1-carbonyl)phenyl)ethyl)-3-((4-methyl-5-(pyrimidin-4-yl)-4H-1,2,4-triazol-3-yl)methylamino)benzamide hydrochloride], the inhibition at 0.3 µM in assay [1] was 7.97%. Also, in assay [1], the inhibition at 1 µM worked out at 24%. Moreover, the inhibition at 3 µM in assay [1] is 53.8%. Further, the results for the IC50 in assay [2], in assay [3] and in assay [4] were 11400 nM, 44.7 nM and above 30 µM, respectively.
With `C[C@@H](NC(=O)c1cccc(NCc2nnc(-c3ccncn3)n2C)c1)c1cccc(C(=O)N2CCC(CN3CCN(c4ccc5c(c4)CN(C4CCC(=O)NC4=O)C5=O)CC3)CC2)c1` (stereo partly drawn) [Compound D122, N-((1R)-1-(3-(4-((4-(2-(2,6-dioxopiperidin-3-yl)-1-oxoisoindolin-5-yl)piperazin-1-yl)methyl)piperidine-1-carbonyl)phenyl)ethyl)-3-((4-methyl-5-(pyrimidin-4-yl)-4H-1,2,4-triazol-3-yl)methylamino)benzamide hydrochloride], in assay [1], the inhibition at 0.3 µM stood at 84.9%, the inhibition at 1 µM is 90.6% and the inhibition at 3 µM was found to be 92.5%. For the same compound, in assay [2], the IC50 is 100 nM. Further, in assay [3], the concentration for half-maximal inhibition (IC50) came out at 12.3 nM. The IC50 in assay [4] is above 30 µM.
As to `C[C@@H](NC(=O)c1cccc(NCc2nnc(-c3ccncn3)n2C)c1)c1cccc(OCCCN2CCN(c3ccc4c(c3)CN(C3CCC(=O)NC3=O)C4=O)CC2)c1` (stereo partly drawn) [Compound D123, N-((1R)-1-(3-(3-(4-(2-(2,6-dioxopiperidin-3-yl)-1-oxoisoindolin-5-yl)piperazin-1-yl)propoxy)phenyl)ethyl)-3-((4-methyl-5-(pyrimidin-4-yl)-4H-1,2,4-triazol-3-yl)methylamino)benzamide hydrochloride], in assay [1], the inhibition at 0.3 µM was 81.6%, the inhibition at 1 µM was determined as 85.2%, the inhibition at 3 µM came out at 84% and the DC50 is 0.03 µM. The half-maximal inhibitory concentration (IC50) in assay [2] is below 0.458 nM. Further, the concentration for half-maximal inhibition (IC50) in assay [3] came to 6.56 nM. Besides, the IC50 in assay [4] was above 30 µM.
For the compound `C[C@@H](NC(=O)c1cccc(NCc2nnc(-c3ccncn3)n2C)c1)c1ccc(OCCCCCCOCCOCCOCCCC(=O)N2CCN(c3ccc4c(c3)CN(C3CCC(=O)NC3=O)C4=O)CC2)cc1` (stereo partly drawn) [Compound D124, N-((1R)-1-(4-(6-(2-(2-(4-(4-(2-(2,6-dioxopiperidin-3-yl)-1-oxoisoindolin-5-yl)piperazin-1-yl)-4-oxobutoxy)ethoxy)ethoxy)hexyloxy)phenyl)ethyl)-3-((4-methyl-5-(pyrimidin-4-yl)-4H-1,2,4-triazol-3-yl)methylamino)benzamide], in assay [1], the inhibition at 0.3 µM was determined as 80.5%, the inhibition at 1 µM came to 90.7%, the inhibition at 3 µM was found to be 89.3% and the DC50 came to 0.1 µM. Also, the IC50 in assay [2] is 90 nM. The concentration for half-maximal inhibition (IC50) in assay [3] is 5.4 nM. Also, the concentration for half-maximal inhibition (IC50) in assay [4] was above 30 µM.
In the case of `C[C@@H](NC(=O)c1cccc(NCc2nnc(-c3ccncn3)n2C)c1)c1ccc(OCCCCCCOCCOCCOCCCC(=O)N2CCN(c3cc4c(cc3F)C(=O)N(C3CCC(=O)NC3=O)C4=O)CC2)cc1` (stereo partly drawn) [Compound D125, N-((1R)-1-(4-(6-(2-(2-(4-(4-(2-(2,6-dioxopiperidin-3-yl)-6-fluoro-1,3-dioxoisoindolin-5-yl)piperazin-1-yl)-4-oxobutoxy)ethoxy)ethoxy)hexyloxy)phenyl)ethyl)-3-((4-methyl-5-(pyrimidin-4-yl)-4H-1,2,4-triazol-3-yl)methylamino)benzamide], the inhibition at 0.3 µM in assay [1] was 71.9%. Moreover, the inhibition at 1 µM in assay [1] was found to be 82.5%. Besides, the inhibition at 3 µM in assay [1] was determined as 76.4%. For the same compound, the concentration for half-maximal inhibition (IC50) in assay [2] stood at 110 nM; in assay [3], 1.13 nM; in assay [4], 26.6 µM.
As for `C[C@@H](NC(=O)c1cccc(NCc2nnc(-c3ccncn3)n2C)c1)c1cccc(OCCCCCCOCCN2CCN(c3ccc4c(c3)CN(C3CCC(=O)NC3=O)C4=O)CC2)c1` (stereo partly drawn) [Compound D126, N-((1R)-1-(3-(6-(2-(4-(2-(2,6-dioxopiperidin-3-yl)-1-oxoisoindolin-5-yl)piperazin-1-yl)ethoxy)hexyloxy)phenyl)ethyl)-3-((4-methyl-5-(pyrimidin-4-yl)-4H-1,2,4-triazol-3-yl)methylamino)benzamide], in assay [1], the inhibition at 0.3 µM was found to be 93.2%, the inhibition at 1 µM is 94.1%, the inhibition at 3 µM is 88% and the DC50 was 0.04 µM. For the same compound, in assay [2], the IC50 amounted to 130 nM. The IC50 in assay [3] was determined as 4.56 nM. Also, the half-inhibitory concentration (IC50) in assay [4] is above 30 µM.
In the case of `C[C@@H](NC(=O)c1cccc(NCc2nnc(-c3ccncn3)n2C)c1)c1ccc(OCCCCCCOCCOCCOCCCC(=O)Nc2cccc3c2CN(C2CCC(=O)NC2=O)C3=O)cc1` (stereo partly drawn) [Compound D127, N-((1R)-1-(4-(6-(2-(2-(4-(2-(2,6-dioxopiperidin-3-yl)-1-oxoisoindolin-4-ylamino)-4-oxobutoxy)ethoxy)ethoxy)hexyloxy)phenyl)ethyl)-3-((4-methyl-5-(pyrimidin-4-yl)-4H-1,2,4-triazol-3-yl)methylamino)benzamide], in assay [1], the inhibition at 0.3 µM was determined as 81.4%, the inhibition at 1 µM stood at 82.1% and the inhibition at 3 µM was 78.5%. For the same compound, in assay [2], the IC50 stood at 100 nM. In addition, the half-maximal inhibitory concentration (IC50) in assay [3] was 2.2 nM. Also, the IC50 in assay [4] is above 30 µM.
As to `C[C@@H](NC(=O)c1cccc(NCc2nnc(-c3ccncn3)n2C)c1)c1cccc(OCCN2CCN(c3ccc4c(c3)CN(C3CCC(=O)NC3=O)C4=O)CC2)c1` (stereo partly drawn) [Compound D128, N-((1R)-1-(3-(2-(4-(2-(2,6-dioxopiperidin-3-yl)-1-oxoisoindolin-5-yl)piperazin-1-yl)ethoxy)phenyl)ethyl)-3-((4-methyl-5-(pyrimidin-4-yl)-4H-1,2,4-triazol-3-yl)methylamino)benzamide], in assay [1], the inhibition at 0.3 µM is -23.2%, the inhibition at 1 µM amounted to 8.53% and the inhibition at 3 µM was -38.6%. Besides, the IC50 in assay [2] amounted to 800 nM. In assay [3], the IC50 is 16.3 nM. Moreover, the IC50 in assay [4] was above 30 µM.
Turning to `C[C@@H](NC(=O)c1cccc(NCc2nnc(-c3ccncn3)n2C)c1)c1cccc(OCCCCN2CCN(c3ccc4c(c3)CN(C3CCC(=O)NC3=O)C4=O)CC2)c1` (stereo partly drawn) [Compound D129, N-((1R)-1-(3-(4-(4-(2-(2,6-dioxopiperidin-3-yl)-1-oxoisoindolin-5-yl)piperazin-1-yl)butoxy)phenyl)ethyl)-3-((4-methyl-5-(pyrimidin-4-yl)-4H-1,2,4-triazol-3-yl)methylamino)benzamide], in assay [1], the inhibition at 0.3 µM amounted to 79.8%, the inhibition at 1 µM came to 77.5%, the inhibition at 3 µM is 70.6% and the DC50 was 0.08 µM. For the same compound, in assay [2], the IC50 is 100 nM. Besides, the IC50 in assay [3] worked out at 27.9 nM. Besides, the IC50 in assay [4] is above 30 µM.
Regarding `C[C@@H](NC(=O)c1cccc(NCc2nnc(-c3ccncn3)n2C)c1)c1cccc(OCCCCCCOCCOCCOCCC(=O)N2CCN(c3cc4c(cc3F)C(=O)N(C3CCC(=O)NC3=O)C4=O)CC2)c1` (stereo partly drawn) [Compound D130, N-((1R)-1-(3-(6-(2-(2-(3-(4-(2-(2,6-dioxopiperidin-3-yl)-6-fluoro-1,3-dioxoisoindolin-5-yl)piperazin-1-yl)-3-oxopropoxy)ethoxy)ethoxy)hexyloxy)phenyl)ethyl)-3-((4-methyl-5-(pyrimidin-4-yl)-4H-1,2,4-triazol-3-yl)methylamino)benzamide], in assay [1], the inhibition at 0.3 µM is 78.7%, the inhibition at 1 µM stood at 84.7%, the inhibition at 3 µM worked out at 90.7% and the DC50 is 0.29 µM. Also, the IC50 in assay [2] worked out at 880 nM. Also, the IC50 in assay [3] is 17.9 nM. The half-inhibitory concentration (IC50) in assay [4] was determined as 24.7 µM.

As usually defined, the IC50 is the concentration at which inhibition is half-maximal.
